Reference: the NIST ThermoML archive (doi:10.1016/j.fluid.2015.07.032)
Several values for one entry are separate records, joined by “and”; a condition that tells them apart may be missing. Equal values may be shown once. ± gives the expanded uncertainty stated by the source.

Assays:
[1] = for mass density: 298.15 K, 101.33 kPa, Liquid, Vibrating tube method; for Normal melting temperature: Crystal, DTA
[2] = Molar enthalpy of transition or fusion; details: Crystal; DSC

| mass density [1] [kg/m3] | Molar enthalpy of transition or fusion [2] | Normal melting temperature [1] [°C] | SMILES |
| --- | --- | --- | --- |
| 786.59 ± 0.12 | – | – | CO [methanol] |
| 821.6 ± 0.11 | – | – | CCCCCCCCO [octan-1-ol] |
| – | 27.5 ± 0.61 kJ/mol | 169.20 ± 0.7 | CC(=O)Nc1ccc(O)cc1 [N-acetyl-p-aminophenol] |
| 780.8 ± 0.13 | – | – | CC(C)O [propan-2-ol] |
| – | 48.2 kJ/mol and 50.3 kJ/mol | – | NC(N)=Nc1nc(CSCC/C(N)=N/S(N)(=O)=O)cs1 [famotidine] |
| 785.02 ± 0.12 | – | – | CCO [ethanol] |
| – | 35.5 ± 0.77 kJ/mol | 141.00 ± 0.7 | N=C(N)N [guanidine] |

| SMILES | mass density [1] [kg/m3] | Molar enthalpy of transition or fusion [2] | Normal melting temperature [1] [°C] |
| --- | --- | --- | --- |
| CC(=O)Oc1ccccc1C(=O)O [2-acetoxybenzoic acid] | – | 33.5 ± 0.73 kJ/mol | 135.50 ± 0.7 |
